Assay results reported in patent US11453683B1, “KRas G12D inhibitors” (Mirati Therapeutics, Inc., priority 2019, dated 2022).
pIC50: −log10 of the molar value.

Tested on: KRas G12D-mediated phosphorylation of ERK
Assay: Inhibition of KRas G12D-mediated phosphorylation of ERK in AGS cells
Format: cell-based
Settings: Homo sapiens; AGS cells expressing G12D, 3 hours, phospho-ERK normalized to GAPDH
Outline: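 Fixed, methanol-permeabilized; phospho-ERK (Thr202/Tyr204) by in-cell immunofluorescence normalized to GAPDH. Percent of DMSO control, IC50 by 4-parameter fit.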

SMILES | pIC50
Cc1nccn1CCOc1nc(N2CC3CCC(C2)N3)c2cnc(-c3cc(O)cc4ccccc34)c(F)c2n1 [Example 84, 4-(4-((1R,5S)-3,8-diazabicyclo[3.2.1]octan-3-yl)-8-fluoro-2-(2-(2-methyl-1H-imidazol-1-yl)ethoxy)pyrido[4,3-d]pyrimidin-7-yl)naphthalen-2-ol] | 5.24
O[C@@H]1C[C@@H]2CN(c3nc(OC[C@@]45CCCN4C[C@H](F)C5)nc4c(F)c(-c5cccc6cccc(Cl)c56)ncc34)C[C@H]1N2 [Example 395, (1R,5R,6R)-3-(7-(8-chloronaphthalen-1-yl)-8-fluoro-2-((2-fluorotetrahydro-1H-pyrrolizin-7a(5H)-yl)methoxy)pyrido[4,3-d]pyrimidin-4-yl)-3,8-diazabicyclo[3.2.1]octan-6-ol] | 5.96
Oc1cc(-c2ncc3c(N4C[C@H]5CC[C@@H](C4)N5)nc(OCCC(F)(F)F)nc3c2F)c2ccccc2c1 [Example 81, 4-(4-((1R,5S)-3,8-diazabicyclo[3.2.1]octan-3-yl)-8-fluoro-2-(3,3,3-trifluoropropoxy)pyrido[4,3-d]pyrimidin-7-yl)naphthalen-2-ol] | 5.08
Cc1ccc2[nH]ncc2c1-c1ncc2c(N3C[C@H]4CC[C@@H](C3)N4)nc(OCC34CCCN3CCC4)nc2c1F [Example 332, 4-((1R,5S)-3,8-diazabicyclo[3.2.1]octan-3-yl)-8-fluoro-7-(5-methyl-1H-indazol-4-yl)-2-((tetrahydro-1H-pyrrolizin-7a(5H)-yl)methoxy)pyrido[4,3-d]pyrimidine] | < 4.78
C#Cc1cccc2cc(O)cc(-c3ncc4c(N5C[C@H]6CC[C@@H](C5)N6)nc(OCC56CCCN5CCC6)nc4c3F)c12 [Example 185, 4-(4-((1R,5S)-3,8-diazabicyclo[3.2.1]octan-3-yl)-8-fluoro-2-((hexahydro-1H-pyrrolizin-7a-yl)methoxy)pyrido[4,3-d]pyrimidin-7-yl)-5-ethynylnaphthalen-2-ol] | 8.15
Oc1cc(-c2ncc3c(N4C[C@H]5CC[C@@H](C4)N5)nc(OCCC(F)(F)F)nc3c2F)c2c(Cl)cccc2c1 [Example 393, 4-(4-((1R,5S)-3,8-diazabicyclo[3.2.1]octan-3-yl)-8-fluoro-2-(3,3,3-trifluoropropoxy)pyrido[4,3-d]pyrimidin-7-yl)-5-chloronaphthalen-2-ol] | 5.12
Fc1c(-c2cccc3c2CC2CC32)ncc2c(N3CC4CCC(C3)N4)nc(OC[C@@]34CCCN3C[C@H](F)C4)nc12 (stereo partly drawn) [Example 438, 4-(3,8-diazabicyclo[3.2.1]octan-3-yl)-8-fluoro-2-(((2R,7aS)-2-fluorotetrahydro-1H-pyrrolizin-7a(5H)-yl)methoxy)-7-(1,1a,6,6a-tetrahydrocyclopropa[a]inden-5-yl)pyrido[4,3-d]pyrimidine] | 5.79
Fc1c(-c2cccc(C(F)(F)F)c2C(F)(F)F)ncc2c(N3C[C@H]4CC[C@@H](C3)N4)nc(OCC34CCCN3CCC4)nc12 [Example 197, 4-((1R,5S)-3,8-diazabicyclo[3.2.1]octan-3-yl)-7-(2,3-bis(trifluoromethyl)phenyl)-8-fluoro-2-((tetrahydro-1H-pyrrolizin-7a(5H)-yl)methoxy)pyrido[4,3-d]pyrimidine] | < 4.78
Oc1cc(-c2ncc3c(N4C[C@H]5CC[C@@H](C4)N5)nc(OCC45CCCN4CCC5)nc3c2F)c2c(Cl)cccc2c1 [Example 36, 4-(4-((1R,5S)-3,8-diazabicyclo[3.2.1]octan-3-yl)-8-fluoro-2-((tetrahydro-1H-pyrrolizin-7a(5H)-yl)methoxy)pyrido[4,3-d]pyrimidin-7-yl)-5-chloronaphthalen-2-ol] | 6.97
Cn1ccnc1CCOc1nc(N2C[C@H]3C[C@@H](O)[C@@H](C2)N3)c2cnc(-c3cccc4cccc(Cl)c34)c(F)c2n1 [Example 173, (1R,5R,6R)-3-(7-(8-chloronaphthalen-1-yl)-8-fluoro-2-(2-(1-methyl-1H-imidazol-2-yl)ethoxy)pyrido[4,3-d]pyrimidin-4-yl)-3,8-diazabicyclo[3.2.1]octan-6-ol] | 4.98
Cc1nccn1CCOc1nc(N2C[C@H]3C[C@@H](O)[C@@H](C2)N3)c2cnc(-c3cccc4cccc(Cl)c34)c(F)c2n1 [Example 167, (1R,5R,6R)-3-(7-(8-chloronaphthalen-1-yl)-8-fluoro-2-(2-(2-methyl-1H-imidazol-1-yl)ethoxy)pyrido[4,3-d]pyrimidin-4-yl)-3,8-diazabicyclo[3.2.1]octan-6-ol] | 4.79
CNc1nc(N2CC3CCC(C2)N3)c2cnc(-c3cc(O)cc4ccccc34)c(F)c2n1 [Example 183, 4-[4-(3,8-diazabicyclo[3.2.1]octan-3-yl)-8-fluoro-2-(methylamino)pyrido[4,3-d]pyrimidin-7-yl]naphthalen-2-ol] | 5.28
CN1CCC[C@H]1COc1nc(N2C[C@H]3CC[C@@H](C2)N3)c2cnc(-c3cc(O)cc4cccc(Cl)c34)c(F)c2n1 [Example 63, 4-(4-((1R,5S)-3,8-diazabicyclo[3.2.1]octan-3-yl)-8-fluoro-2-(((S)-1-methylpyrrolidin-2-yl)methoxy)pyrido[4,3-d]pyrimidin-7-yl)-5-chloronaphthalen-2-ol] | 6.73
Nc1cccc(CCOc2nc(N3C[C@H]4CC[C@@H](C3)N4)c3cnc(-c4cc(O)cc5ccccc45)c(F)c3n2)n1 [Example 139, 4-(2-(2-(6-aminopyridin-2-yl)ethoxy)-4-((1R,5S)-3,8-diazabicyclo[3.2.1]octan-3-yl)-8-fluoropyrido[4,3-d]pyrimidin-7-yl)naphthalen-2-ol] | 5.28
CN1C[C@H](F)C[C@H]1COc1nc(N2C[C@H]3CC[C@@H](C2)N3)c2cnc(-c3cc(O)cc4ccccc34)c(F)c2n1 [Example 16, 4-(4-((1R,5S)-3,8-diazabicyclo[3.2.1]octan-3-yl)-8-fluoro-2-(((2S,4R)-4-fluoro-1-methylpyrrolidin-2-yl)methoxy)pyrido[4,3-d]pyrimidin-7-yl)naphthalen-2-ol] | 5.42
C#Cc1cccc2cccc(-c3ncc4c(N5C[C@H]6CC[C@@H](C5)N6)nc(OC[C@@H]5CCCN5C)nc4c3F)c12 [Example 206, 4-((1R,5S)-3,8-diazabicyclo[3.2.1]octan-3-yl)-7-(8-ethynylnaphthalen-1-yl)-8-fluoro-2-(((S)-1-methylpyrrolidin-2-yl)methoxy)pyrido[4,3-d]pyrimidine] | 6.05
Fc1c(-c2cccc3cccc(Cl)c23)ncc2c(N3C[C@H]4CC[C@@H](C3)N4)nc(OC[C@]34CCCN3[C@@H](Cn3cccn3)CC4)nc12 [Example 418, 2-((3-((1H-pyrazol-1-yl)methyl)tetrahydro-1H-pyrrolizin-7a(5H)-yl)methoxy)-4-(3,8-diazabicyclo[3.2.1]octan-3-yl)-7-(8-chloronaphthalen-1-yl)-8-fluoropyrido[4,3-d]pyrimidine bis(2,2,2-trifluoroacetate)] | 5.56
CC(C)c1c(F)cccc1-c1ncc2c(N3C[C@H]4CC[C@@H](C3)N4)nc(OCC34CCCN3CCC4)nc2c1F [Example 299, 4-((1R,5S)-3,8-diazabicyclo[3.2.1]octan-3-yl)-8-fluoro-7-(3-fluoro-2-isopropylphenyl)-2-((hexahydro-1H-pyrrolizin-7a-yl)methoxy)pyrido[4,3-d]pyrimidine] | < 5.26
Oc1cc(-c2ncc3c(N4C[C@H]5CC[C@@H](C4)N5)nc(OCCc4ccc(F)cn4)nc3c2F)c2ccccc2c1 [Example 102, 4-(4-((1R,5S)-3,8-diazabicyclo[3.2.1]octan-3-yl)-8-fluoro-2-(2-(5-fluoropyridin-2-yl)ethoxy)pyrido[4,3-d]pyrimidin-7-yl)naphthalen-2-ol] | 5.10
